Measurements reported in publication PMC7031696 (Cell chemical biology, 2019).

Tested on: 3D7-MR4 trophozoite parasite-infected RBCs
Assay: Metabolomic profiling (hydrophilic metabolite changes, UHPLC-MS)
Type: cell-based, Plasmodium falciparum

CC(C)(C)c1ccc2c(c1)CN(Cc1ccc(Cl)cc1)CO2 [MMV000442] was tested, and the “peptide levels (hemoglobin catabolism signature)” value (10 × IC50^72h, 2.5 hr, trophozoites) was “decreased peptide levels”, the “Log2(fold changes) 1_3-Bisphosphoglyceric acid” value (metabolite 1_3-Bisphosphoglyceric acid, log2 fold change) was 0.0000 and the “Log2(fold changes) 2-Hydroxy-2-methylbutanedioic acid” value (metabolite 2-Hydroxy-2-methylbutanedioic acid, log2 fold change) was 0.0000. The “Log2(fold changes) 2-Isopropylmalic acid” value (metabolite 2-Isopropylmalic acid, log2 fold change) was 0.0000, the “Log2(fold changes) 2-dehydro-D-gluconate” value (metabolite 2-dehydro-D-gluconate, log2 fold change) was 0.0187 and the “Log2(fold changes) 2-oxo-4-methylthiobutanoate” value (metabolite 2-oxo-4-methylthiobutanoate, log2 fold change) was 0.0000. For the same compound, the “Log2(fold changes) 2_3-Diphosphoglyceric acid” value (metabolite 2_3-Diphosphoglyceric acid, log2 fold change) was 0.0000, the “Log2(fold changes) 3-phosphoglycerate” value (metabolite 3-phosphoglycerate, log2 fold change) was 0.1472 and the “Log2(fold changes) 3-phosphoserine” value (metabolite 3-phosphoserine, log2 fold change) was -0.0388. The “Log2(fold changes) 4-Pyridoxic acid” value (metabolite 4-Pyridoxic acid, log2 fold change) was 0.3454, the “Log2(fold changes) 4-aminobutyrate” value (metabolite 4-aminobutyrate, log2 fold change) was -0.2887 and the “Log2(fold changes) 4-phosphopantetheine” value (metabolite 4-phosphopantetheine, log2 fold change) was 0.0000. The “Log2(fold changes) 4-phosphopantothenate” value (metabolite 4-phosphopantothenate, log2 fold change) was -0.1668, the “Log2(fold changes) 5-aminopentanoic acid” value (metabolite 5-aminopentanoic acid, log2 fold change) was -0.5922 and the “Log2(fold changes) 5-methyl-THF” value (metabolite 5-methyl-THF, log2 fold change) was 0.0000. The “Log2(fold changes) 5-phosphoribosyl-1-pyrophosphate” value (metabolite 5-phosphoribosyl-1-pyrophosphate, log2 fold change) was 0.0000, the “Log2(fold changes) 6-phospho-D-gluconate” value (metabolite 6-phospho-D-gluconate, log2 fold change) was -0.0694 and the “Log2(fold changes) ADP-D-glucose” value (metabolite ADP-D-glucose, log2 fold change) was 0.0000. The “Log2(fold changes) Acetyl-glycine” value (metabolite Acetyl-glycine, log2 fold change) was 0.0000, the “Log2(fold changes) Acetyllysine” value (metabolite Acetyllysine, log2 fold change) was -2.4239 and the “Log2(fold changes) Aminoadipic acid” value (metabolite Aminoadipic acid, log2 fold change) was 0.6779. The “Log2(fold changes) CDP” value (metabolite CDP, log2 fold change) was -0.1566, the “Log2(fold changes) CDP-choline” value (metabolite CDP-choline, log2 fold change) was 0.0000 and the “Log2(fold changes) CDP-ethanolamine” value (metabolite CDP-ethanolamine, log2 fold change) was 0.0000. For the same compound, the “Log2(fold change) of CMP” value (metabolite CMP) was -0.4256, the “Log2(fold change) of CTP” value (metabolite CTP) was 0.0000 and the “Log2(fold changes) Citraconic acid” value (metabolite Citraconic acid, log2 fold change) was 0.0000. For the same compound, the “Log2(fold change) of D-glucarate” value (metabolite D-glucarate) was 0.0000, the “Log2(fold change) of D-gluconate” value (metabolite D-gluconate) was 0.0000 and the “Log2(fold change) of D-glucosamine-1/6-phosphate” value (metabolite D-glucosamine-1/6-phosphate) was 0.0000. The “Log2(fold change) of D-sedoheptulose-1/7-phosphate” value (metabolite D-sedoheptulose-1/7-phosphate) was 0.0894, the “Log2(fold change) of DL-Pipecolic Acid” value (metabolite DL-Pipecolic Acid) was -2.3554 and the “Log2(fold change) of DLH” value (metabolite DLH) was -3.0002. The “Log2(fold change) of DLS” value (metabolite DLS) was 0.0000, the “Log2(fold change) of Decanoyl-CoA” value (metabolite Decanoyl-CoA) was 0.0000 and the “Log2(fold change) of EV” value (metabolite EV) was 0.0000. The “Log2(fold change) of FAD” value (metabolite FAD) was 0.0825, the “Log2(fold change) of FMN” value (metabolite FMN) was 0.2444 and the “Log2(fold change) of G3P/DHAP” value (metabolite G3P/DHAP) was 0.3715. For the same compound, the “Log2(fold change) of GDP” value (metabolite GDP) was -0.4064, the “Log2(fold change) GMP” value (metabolite GMP) was -0.5023 and the “Log2(fold change) GTP” value (metabolite GTP) was 0.0000. For the same compound, the “Log2(fold change) HVDD” value (metabolite HVDD) was 0.0000, the “Log2(fold change) Hexose” value (metabolite Hexose) was 0.5242 and the “Log2(fold change) Hydroxyisocaproic acid” value (metabolite Hydroxyisocaproic acid) was 0.0000. The “Log2(fold change) IDP” value (metabolite IDP) was 0.0000, the “Log2(fold change) IMP” value (metabolite IMP) was -0.3808 and the “Log2(fold change) Inositol” value (metabolite Inositol) was 0.0000. The “Log2(fold change) Isopentyl-PP” value (metabolite Isopentyl-PP) was 0.0000, the “Log2(fold change) L-arginino-succinate” value (metabolite L-arginino-succinate) was -0.9153 and the “Log2(fold change) LD” value (metabolite LD) was 0.0782. For the same compound, the “Log2(fold change) Myristoyl/tetradecanoyl-CoA” value (metabolite Myristoyl/tetradecanoyl-CoA) was 0.0000, the “Log2(fold change) N-Acetyl-L-alanine” value (metabolite N-Acetyl-L-alanine) was -0.8745 and the “Log2(fold change) N-acetyl-L-ornithine” value (metabolite N-acetyl-L-ornithine) was -2.0207. For the same compound, the “Log2(fold change) N-acetyl-glucosamine-1/6-phosphate” value (metabolite N-acetyl-glucosamine-1/6-phosphate) was 0.0000, the “Log2(fold change) N-acetyl-glutamate” value (metabolite N-acetyl-glutamate) was 0.2896 and the “Log2(fold change) N-acetyl-glutamine” value (metabolite N-acetyl-glutamine) was -0.5645. The “Log2(fold change) N-carbamoyl-L-aspartate” value (metabolite N-carbamoyl-L-aspartate) was -1.7487, the “Log2(fold change) NAD+” value (metabolite NAD+) was -0.0829 and the “Log2(fold change) NADH” value (metabolite NADH) was 0.7233. For the same compound, the “Log2(fold change) NADP+” value (metabolite NADP+) was 0.2722, the “Log2(fold change) NADPH” value (metabolite NADPH) was 0.0000 and the “Log2(fold change) O-acetyl-L-serine” value (metabolite O-acetyl-L-serine) was 0.0000. For the same compound, the “Log2(fold change) Octoluse 8/1P” value (metabolite Octoluse 8/1P) was 0.0000, the “Log2(fold change) Octoluse Bisphosphate” value (metabolite Octoluse Bisphosphate) was -0.1456 and the “Log2(fold change) PD” value (metabolite PD) was -3.3951. For the same compound, the “Log2(fold change) PE” value (metabolite PE) was -2.6495, the “Log2(fold change) PEE” value (metabolite PEE) was -3.0239 and the “Log2(fold change) PEEK” value (metabolite PEEK) was -4.4264. For the same compound, the “Log2(fold change) PVNF” value (metabolite PVNF) was -3.4246, the “Log2(fold change) Pyroglutamic acid” value (metabolite Pyroglutamic acid) was -0.3004 and the “Log2(fold change) Pyrophosphate” value (metabolite Pyrophosphate) was 0.0000. For the same compound, the “Log2(fold change) Ribose-5-phosphate” value (metabolite Ribose-5-phosphate) was -0.0687, the “Log2(fold change) S-adenosyl-L-homocysteine” value (metabolite S-adenosyl-L-homocysteine) was -0.3299 and the “Log2(fold change) S-adenosyl-L-methioninamine” value (metabolite S-adenosyl-L-methioninamine) was 0.0000. The “Log2(fold change) S-adenosyl-L-methionine” value (metabolite S-adenosyl-L-methionine) was 0.0000, the “Log2(fold change) S-methyl-5'-thioadenosine” value (metabolite S-methyl-5'-thioadenosine) was 0.0000 and the “Log2(fold change) SD” value (metabolite SD) was 0.0000. For the same compound, the “Log2(fold change) SDL” value (metabolite SDL) was 0.0000, the “Log2(fold change) SID” value (metabolite SID) was 0.0000 and the “Log2(fold change) Sedoheptulose bisphosphate” value (metabolite Sedoheptulose bisphosphate) was -0.0816. For the same compound, the “Log2(fold change) Thiamine pyrophosphate” value (metabolite Thiamine pyrophosphate) was 0.0000, the “Log2(fold changes) UDP-D-glucose” value (metabolite UDP-D-glucose, log2 fold change) was 0.1178 and the “Log2(fold changes) UDP-D-glucuronate” value (metabolite UDP-D-glucuronate, log2 fold change) was 0.0275. The “Log2(fold changes) UDP-N-acetyl-glucosamine” value (metabolite UDP-N-acetyl-glucosamine, log2 fold change) was -0.1255, the “Log2(fold changes) UDP” value (metabolite UDP, log2 fold change) was -0.3330 and the “Log2(fold changes) UMP” value (metabolite UMP, log2 fold change) was -0.0965. For the same compound, the “Log2(fold changes) UTP” value (metabolite UTP, log2 fold change) was 0.0000, the “Log2(fold changes) VD” value (metabolite VD, log2 fold change) was 0.0000 and the “Log2(fold changes) Xanthurenic acid” value (metabolite Xanthurenic acid, log2 fold change) was 0.0000. For the same compound, the “Log2(fold changes) a-ketoglutarate” value (metabolite a-ketoglutarate, log2 fold change) was -0.2716, the “Log2(fold changes) acetyl-CoA” value (metabolite acetyl-CoA, log2 fold change) was 0.0000 and the “Log2(fold changes) acetyl-aspartate” value (metabolite acetyl-aspartate, log2 fold change) was -0.0302. For the same compound, the “Log2(fold changes) acetylphosphate” value (metabolite acetylphosphate, log2 fold change) was 0.6335, the “Log2(fold changes) aconitate” value (metabolite aconitate, log2 fold change) was -0.3057 and the “Log2(fold changes) adenine” value (metabolite adenine, log2 fold change) was 0.0000. For the same compound, the “Log2(fold changes) adenosine 5'-phosphosulfate” value (metabolite adenosine 5'-phosphosulfate, log2 fold change) was -0.0782.
